Laboratory results reported in patent US11014911B2, “CDK2 inhibitors” (Pfizer Inc., priority 2019, dated 2021).

Legend:
[1] = biological target: CDK2/Cyclin E1 full length (Homo sapiens (Human), UniProt P24941); assay: CDK2/Cyclin E1 full length mobility shift assay; assay type: biochemical
Description: Cdk2/Cyclin E1 Full Length Mobility Shift Assay
Wild-type CDK2/wild-type full length Cyclin E1 enzyme complex was produced in-house (baculoviral expression, LJIC-2080/LJIC-2103) and phosphorylated by CDK7/Cyclin H1/Matl enzyme complex with CDK2:CDK7 ratio of 50:1 (concentration mg/mL) in the presence of 10 mM MgCl2 and 5 mM ATP at room temperature for one hour. […] The assay was initiated with the addition of ATP, following a fifteen minutes pre-incubation of enzyme and inhibitor at room temperature in the reaction mixture. The reaction was stopped after 45 minutes at room temperature by the addition of 50 μL of 80 mM EDTA.

GSK3β (H350L) = GSK3β (H350L) (Homo sapiens (Human), UniProt P49841); details: read-out: GSK3β Ki
GSK3β (H350L), sequence (P49841 whole entry, stated change not applied): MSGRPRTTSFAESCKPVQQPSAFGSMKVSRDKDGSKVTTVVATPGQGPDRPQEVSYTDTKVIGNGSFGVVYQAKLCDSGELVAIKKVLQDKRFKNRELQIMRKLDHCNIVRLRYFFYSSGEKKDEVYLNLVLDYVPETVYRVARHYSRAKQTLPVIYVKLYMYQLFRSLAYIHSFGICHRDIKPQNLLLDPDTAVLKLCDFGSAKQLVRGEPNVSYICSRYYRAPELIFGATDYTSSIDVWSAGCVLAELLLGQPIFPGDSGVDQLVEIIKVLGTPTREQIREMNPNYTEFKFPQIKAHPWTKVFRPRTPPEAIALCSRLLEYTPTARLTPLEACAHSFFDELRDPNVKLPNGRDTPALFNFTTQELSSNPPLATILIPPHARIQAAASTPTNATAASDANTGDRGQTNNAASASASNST
Description: The assay was initiated with the addition of ATP, following 15 minutes pre-incubation of enzyme and inhibitor at room temperature in the reaction mixture. The reaction was stopped after 30 minutes at room temperature by the addition of 50 μL of 80 mM EDTA.

Ki [1]	Ki (GSK3β (H350L))	SMILES
0.11 nM	42.3 nM	CCC(C)(C)NC(=O)O[C@@H]1CC[C@H](c2cc(NC(=O)Cc3cnn(C)c3)n[nH]2)C1 [Example 61]
0.38 nM	11.4 nM	CCCNC(=O)O[C@H]1CC[C@@H](c2cc(NC(=O)Cc3cnc(OC)s3)n[nH]2)C1 [Example 189, (1S,3R)-3-(3-{[(2-methoxy-1,3-thiazol-5-yl)acetyl]amino}-1H-pyrazol-5-yl)cyclopentyl propylcarbamate]
0.32 nM	9.89 nM	C[C@H]1C[C@H](C)N1C(=O)O[C@@H]1CC[C@H](c2cc(NC(=O)Cc3cnn(C)c3)n[nH]2)C1 [Example 605, (1R,3S)-3-(3-{[(1-methyl-1H-pyrazol-4-yl)acetyl]amino}-1H-pyrazol-5-yl)cyclopentyl (2S,4S)-2,4-dimethylazetidine-1-carboxylate]
0.37 nM	24.2 nM	C[C@]1(O)CC[C@@H](NC(=O)O[C@@H]2CC[C@H](c3cc(NC(=O)Cc4cc(F)cc(F)c4)n[nH]3)C2)CC1 [Example 572, (1R,3S)-3-(3-{[(3,5-difluorophenyl)acetyl]amino}-1H-pyrazol-5-yl)cyclopentyl (cis-4-hydroxy-4-methylcyclohexyl)carbamate]
0.41 nM	40.6 nM	CC(C)(C)NC(=O)O[C@@H]1CC[C@H](c2cc(NC(=O)Cc3cc(C(F)F)ccn3)n[nH]2)C1 [Example 314, (1R,3S)-3-[3-({[4-(difluoromethyl)pyridin-2-yl]acetyl}amino)-1H-pyrazol-5-yl]cyclopentyl tert-butylcarbamate]
1.13 nM	14.7 nM	CCN(C)C(=O)O[C@@H]1CC[C@H](c2cc(NC(=O)Cc3ccc(F)cc3)n[nH]2)C1 [Example 238, (1R,3S)-3-(3-{[(4-fluorophenyl)acetyl]amino}-1H-pyrazol-5-yl)cyclopentyl ethyl(methyl)carbamate]
1.34 nM	43.2 nM	Cc1cnc(CC(=O)Nc2cc([C@H]3CC[C@@H](OC(=O)N[C@@H](C)[C@@H](C)F)C3)[nH]n2)o1 [Example 383, (1R,3S)-3-(3-{[(5-methyl-1,3-oxazol-2-yl)acetyl]amino}-1H-pyrazol-5-yl)cyclopentyl [(2S,3R)-3-fluorobutan-2-yl]carbamate]
0.27 nM	7.18 nM	C[C@H]1[C@H](O)CN1C(=O)O[C@@H]1CC[C@H](c2cc(NC(=O)Cc3cc(F)cc(F)c3)n[nH]2)C1 [Example 617, (1R,3S)-3-(3-{[(3,5-difluorophenyl)acetyl]amino}-1H-pyrazol-5-yl)cyclopentyl (2S,3R)-3-hydroxy-2-methylazetidine-1-carboxylate]
0.82 nM	39.7 nM	CCCNC(=O)O[C@H]1CC[C@@H](c2cc(NC(=O)Cc3cnc(C)o3)n[nH]2)C1 [Example 175, (1S,3R)-3-(3-{[(2-methyl-1,3-oxazol-5-yl)acetyl]amino}-1H-pyrazol-5-yl)cyclopentyl propylcarbamate]
0.18 nM	20.6 nM	CC[C@H](C)NC(=O)O[C@@H]1CC[C@H](c2cc(NC(=O)Cc3ccc4ncc(C)n4n3)n[nH]2)C1 [Example 46]
1.43 nM	12.5 nM	COc1ccc(CC(=O)Nc2cc([C@@H]3CC[C@H](OC(=O)NC4CCOCC4)C3)[nH]n2)cc1 [Example 501, (1S,3R)-3-(3-{[(4-methoxyphenyl)acetyl]amino}-1H-pyrazol-5-yl)cyclopentyl tetrahydro-2H-pyran-4-ylcarbamate]
3.68 nM	> 95.3 nM	CCCNC(=O)O[C@@H]1CC[C@H](c2cc(NC(=O)c3ccc(OC)nc3)n[nH]2)C1 [Example 183, (1R,3S)-3-(3-{[(6-methoxypyridin-3-yl)carbonyl]amino}-1H-pyrazol-5-yl)cyclopentyl propylcarbamate]

SMILES	Ki [1]	Ki (GSK3β (H350L))
Cc1cc(CC(=O)Nc2cc([C@@H]3CC[C@H](OC(=O)N[C@H]4CC[C@@H](O)CC4)C3)[nH]n2)ccn1 [Example 544, (1S,3R)-3-(3-{[(2-methylpyridin-4-yl)acetyl]amino}-1H-pyrazol-5-yl)cyclopentyl (cis-4-hydroxycyclohexyl)carbamate]	0.54 nM	1.96 nM
CC[C@H](C)CNC(=O)O[C@@H]1CC[C@H](c2cc(NC(=O)Cc3cnc(C)s3)n[nH]2)C1 [Example 417, (1R,3S)-3-(3-{[(2-methyl-1,3-thiazol-5-yl)acetyl]amino}-1H-pyrazol-5-yl)cyclopentyl [(2S)-2-methylbutyl]carbamate]	0.81 nM	12.6 nM
CC[C@H](C)NC(=O)O[C@@H]1CC[C@H](c2cc(NC(=O)Cc3cn4ccsc4n3)n[nH]2)C1 [Example 355, (1R,3S)-3-{3-[(imidazo[2,1-b][1,3]thiazol-6-ylacetyl)amino]-1H-pyrazol-5-yl}cyclopentyl (2S)-butan-2-ylcarbamate]	1.13 nM	18.1 nM
CC[C@H](C)NC(=O)O[C@@H]1CC[C@H](c2cc(NC(=O)Cc3cnn(C)c3)n[nH]2)C1 [Example 327, (1R,3S)-3-(3-{[(1-methyl-1H-pyrazol-4-yl)acetyl]amino}-1H-pyrazol-5-yl)cyclopentyl (2S)-butan-2-ylcarbamate]	0.44 nM	57.8 nM
COc1ccc(CC(=O)Nc2cc([C@@H]3CC[C@H](OC(=O)N[C@H]4CC[C@H](O)CC4)C3)[nH]n2)nc1 [Example 557, (1S,3R)-3-(3-{[(5-methoxypyridin-2-yl)acetyl]amino}-1H-pyrazol-5-yl)cyclopentyl (trans-4-hydroxycyclohexyl)carbamate]	1.01 nM	2.6 nM
Cc1ncc(CC(=O)Nc2cc([C@@H]3CC[C@H](OC(=O)N[C@H]4CC[C@H](O)CC4)C3)[nH]n2)s1 [Example 551, (1S,3R)-3-(3-{[(2-methyl-1,3-thiazol-5-yl)acetyl]amino}-1H-pyrazol-5-yl)cyclopentyl (trans-4-hydroxycyclohexyl)carbamate]	0.34 nM	2.94 nM
CC[C@H](C)NC(=O)O[C@@H]1CC[C@H](c2cc(NC(=O)Cc3ccon3)n[nH]2)C1 [Example 323, (1R,3S)-3-{3-[(1,2-oxazol-3-ylacetyl)amino]-1H-pyrazol-5-yl}cyclopentyl (2S)-butan-2-ylcarbamate]	1.07 nM	74.1 nM
CC[C@H](C)NC(=O)O[C@@H]1CC[C@H](c2cc(NC(=O)Cc3ccc(C(=O)N(C)C)cc3)n[nH]2)C1 [Example 364, (1R,3S)-3-[3-({[4-(dimethylcarbamoyl)-phenyl]acetyl}amino)-1H-pyrazol-5-yl]cyclopentyl (2S)-butan-2-ylcarbamate]	0.82 nM	59.9 nM
COc1cc(CC(=O)Nc2cc([C@@H]3CC[C@H](OC(=O)N[C@H]4CC[C@H](O)CC4)C3)[nH]n2)ccn1 [Example 555, (1S,3R)-3-(3-{[(2-methoxypyridin-4-yl)acetyl]amino}-1H-pyrazol-5-yl)cyclopentyl (trans-4-hydroxycyclohexyl)carbamate]	0.37 nM	3.58 nM
CCCNC(=O)O[C@@H]1CC[C@H](c2cc(NC(=O)Cc3ccc(OC)cc3S(C)(=O)=O)n[nH]2)C1 [Example 212, (1R,3S)-3-[3-({[4-methoxy-2-(methylsulfonyl)phenyl]acetyl}amino)-1H-pyrazol-5-yl]cyclopentyl propylcarbamate]	0.67 nM	77.2 nM
